Results reported in ChEMBL document CHEMBL3351315, “Tanzawaic acid derivatives from a marine isolate of Penicillium sp. (SF-6013) with anti-inflammatory and PTP1B inhibitory activities” (Bioorg Med Chem Lett, 2014).
Each block holds one molecule with its values, some of them ahead of it. Activity calls are given as the source filed them. The calls are words filed in the database; no cut-off is given here.

Assays:
BV-2 [1] = assay: Inhibition of LPS-induced nitric oxide production in mouse BV2 cells pre-treated for 3 hrs before LPS stimulation by ELISA based Griess assay; assay type: functional, cell-based
[2] = target: T1, Tyrosine-protein phosphatase non-receptor type 1 (Homo sapiens) (UniProt P18031); assay: Inhibition of human recombinant PTP1B assessed as reduction in pNPP substrate hydrolysis at 30 uM incubated for 30 mins
T1 sequence (whole entry): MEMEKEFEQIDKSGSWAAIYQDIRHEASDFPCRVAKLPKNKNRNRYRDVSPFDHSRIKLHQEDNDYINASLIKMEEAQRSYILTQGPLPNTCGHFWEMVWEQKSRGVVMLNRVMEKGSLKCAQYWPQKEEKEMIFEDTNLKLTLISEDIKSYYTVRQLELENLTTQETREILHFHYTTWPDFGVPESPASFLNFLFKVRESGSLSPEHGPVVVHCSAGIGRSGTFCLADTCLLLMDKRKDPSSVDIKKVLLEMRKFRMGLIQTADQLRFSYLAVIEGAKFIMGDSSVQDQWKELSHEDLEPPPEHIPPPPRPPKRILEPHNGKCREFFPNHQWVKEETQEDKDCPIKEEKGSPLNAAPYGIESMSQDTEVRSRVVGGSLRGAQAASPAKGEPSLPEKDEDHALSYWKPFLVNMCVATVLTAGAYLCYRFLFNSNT

[3] = target: T2, Tyrosine-protein phosphatase non-receptor type 1 (Homo sapiens, UniProt P18031); assay: Inhibition of human recombinant PTP1B assessed as reduction in pNPP substrate hydrolysis incubated for 30 mins
T2 sequence (P18031 whole entry): T1 sequence (whole entry)

[4] = Effect on beta-actin protein expression in LPS-induced mouse BV2 cells pre-treated for 1 hr before LPS stimulation for 18 hrs by Western blot method; assay type: ADME, cell-based; details: bv-2, 18 h
RAW264.7 [5] = assay: Inhibition of LPS-induced nitric oxide production in mouse RAW264.7 cells pre-treated for 3 hrs before LPS stimulation by ELISA based Griess assay; assay type: functional, cell-based
RAW264.7 [6] = assay: Inhibition of LPS-induced PGE2 production in mouse RAW264.7 cells pre-treated for 3 hrs before LPS stimulation for 24 hrs by ELISA; assay type: functional, cell-based
RAW264.7 [7] = assay: Inhibition of LPS-induced COX2 protein expression in mouse RAW264.7 cells pre-treated for 1 hr before LPS stimulation for 18 hrs by Western blot method; assay type: functional, cell-based
BV-2 [8] = assay: Inhibition of LPS-induced PGE2 production in mouse BV2 cells pre-treated for 3 hrs before LPS stimulation for 24 hrs by ELISA; assay type: functional, cell-based
BV-2 [9] = assay: Inhibition of LPS-induced iNOS protein expression in mouse BV2 cells pre-treated for 1 hr before LPS stimulation for 18 hrs by Western blot method; assay type: functional, cell-based
BV-2 [10] = assay: Inhibition of LPS-induced IL-1beta production in mouse BV2 cells pre-treated for 3 hrs before LPS stimulation for 24 hrs by ELISA; assay type: functional, cell-based
RAW264.7 [11] = assay: Inhibition of LPS-induced iNOS protein expression in mouse RAW264.7 cells pre-treated for 1 hr before LPS stimulation for 18 hrs by Western blot method; assay type: functional, cell-based
BV-2 [12] = assay: Inhibition of LPS-induced COX2 protein expression in mouse BV2 cells pre-treated for 1 hr before LPS stimulation for 18 hrs by Western blot method; assay type: functional, cell-based
RAW264.7 [13] = assay: Effect on beta-actin protein expression in LPS-induced mouse RAW264.7 cells pre-treated for 1 hr before LPS stimulation for 18 hrs by Western blot method; assay type: ADME, cell-based; details: raw264.7, 18 h

SMILES: Cc1ccc2c(c1/C=C\C=C\C(=O)O)[C@H](C)C[C@@](C)(O)C2
IC50 (BV-2 [1]): 37.8 µM
inhibition [2]: 27.3%

SMILES: Cc1ccc2c(c1/C=C/C=C/C(=O)O)[C@H](C)C[C@@](C)(O)C2
inhibition [2]: 24.1%

SMILES: Cc1ccc2c(c1/C=C/C=C/C(=O)O)[C@H](C)C[C@H](C)C2
Activity [4]: Non-toxic
IC50 (BV-2 [1]): 7.1 µM
IC50 [3]: 8.2 µM
IC50 (RAW264.7 [5]): 27 µM
IC50 (RAW264.7 [6]): 15.7 µM
inhibition (RAW264.7 [7]): Dose-dependent effect
IC50 (BV-2 [8]): 17.5 µM
inhibition (BV-2 [9]): Dose-dependent effect
IC50 (BV-2 [10]): 21.9 µM
inhibition (RAW264.7 [11]): Dose-dependent effect
inhibition (BV-2 [12]): Dose-dependent effect
Activity (RAW264.7 [13]): Non-toxic

Results, then the molecule that gave them:

inhibition [2]: inactive
SMILES: C[C@@H]1C[C@@](C)(O)C[C@@H]2C=C[C@H](C)[C@H](/C=C/C=C/C(=O)O)[C@@H]12

IC50 (BV-2 [1]): 42.5 µM
IC50 [3]: 8.2 µM
SMILES: C[C@H]1C[C@@H](C)[C@@H]2[C@@H](/C=C/C=C/C(=O)O)[C@@H](C)C=C[C@H]2C1
